Assay results from patent US12329747B2, “Use of lipophilic beta-lactam antibiotics and carboxylate esters for the treatment of bacterial infections within citrus and other plant species” (priority 2019, dated 2025).
Structures can show the parent of a compound that is named as a salt.

Columns and labels:
[1] = tested on: HLB; conditions: cited from earlier work; for effect on HLB infected trees: spraying or common treatment, background statement
[2] = tested on: citrus leaves; conditions: external application, background statement; cited from earlier work
[3] = tested on: Murcott mandarin clippings; assay: Foliar application to citrus clippings, negative ESI mass spectrum of reservoir water after 24 hours; conditions: 25 μmoles in 1:1 neem oil, 24 hour incubation; for penicillin G/V or metabolite peaks detected in reservoir water: negative ESI mass spectrum
[4] = tested on: fire blight (Erwinia amylovera); conditions: background statement; cited from earlier work
[5] = tested on: Candidatus Liberibacter; conditions: background statement, cited from earlier work; for effectiveness against the pathogenic bacteria: grafting method

## [Cu] [Copper]
[1]
  effect on HLB infected trees: not been found to be effective

## CC[C@H]1CCC[C@H](O[C@H]2CC[C@H](N(C)C)[C@@H](C)O2)[C@@H](C)C(=O)C2=C[C@@H]3[C@@H](C=C[C@@H]4C[C@@H](O[C@@H]5O[C@@H](C)[C@H](OC)[C@@H](OC)[C@H]5OC)C[C@@H]34)[C@@H]2CC(=O)O1 [Spinosyn A]
[2]
  penetration of citrus leaves or stems: known to readily penetrate citrus leaves

## COC(=O)[C@@H]1N2C(=O)[C@@H](NC(=O)Cc3ccccc3)[C@H]2SC1(C)C [product compound 1, Methyl(2S,5R,6R)-3,3-dimethyl-7-oxo-6-(2-phenylacetamido)-4-thia-1-azabicyclo[3.2.0]heptane-2-carboxylate]
[3]
  hydrolysis of the ester into the active antibiotic by citrus tissue: not being successfully metabolized to the active antibiotic
  penetration of waxy cuticle layer and epidermis to access the phloem: affectively penetrate through the waxy cuticle layer and through the epidermis to access the phloem

## COC(=O)[C@@H]1N2C(=O)[C@@H](NC(=O)COc3ccccc3)[C@H]2SC1(C)C [product compound 2, Methyl(2S,5R,6R)-3,3-dimethyl-7-oxo-6-(2-phenoxyacetamido)-4-thia-1-azabicyclo[3.2.0]heptane-2-carboxylate]
[3]
  hydrolysis of the ester into the active antibiotic by citrus tissue: not being successfully metabolized to the active antibiotic
  penetration of waxy cuticle layer and epidermis to access the phloem: affectively penetrate through the waxy cuticle layer and through the epidermis to access the phloem

## CC1(C)S[C@@H]2[C@H](NC(=O)Cc3ccccc3)C(=O)N2[C@H]1C(=O)OCc1ccccc1 [product compound 3, Benzyl(2S,5R,6R)-3,3-dimethyl-7-oxo-6-(2-phenylacetamido)-4-thia-1-azabicyclo[3.2.0]heptane-2-carboxylate]
[3]
  penetration of waxy cuticle layer and epidermis to access the phloem: substantially reduce permeability
  penicillin G/V or metabolite peaks detected in reservoir water: no recognizable metabolite peaks were detected

## CC1(C)S[C@@H]2[C@H](NC(=O)COc3ccccc3)C(=O)N2[C@H]1C(=O)OCc1ccccc1 [product compound 4, Benzyl(2S,5R,6R)-3,3-dimethyl-7-oxo-6-(2-phenoxyacetamido)-4-thia-1-azabicyclo[3.2.0]heptane-2-carboxylate]
[3]
  penetration of waxy cuticle layer and epidermis to access the phloem: substantially reduce permeability
  penicillin G/V or metabolite peaks detected in reservoir water: no recognizable metabolite peaks were detected

## CCCCCCCCCC(=O)OCOC(=O)[C@@H]1N2C(=O)[C@@H](NC(=O)Cc3ccccc3)[C@H]2SC1(C)C [product compound 5, (Decanoyloxy)methyl (2S,5R,6R)-3,3-dimethyl-7-oxo-6-(2-phenylacetamido)-4-thia-1-azabicyclo[3.2.0]heptane-2-carboxylate]
[3]
  hydrolysis of the ester into the active antibiotic by citrus tissue: hydrolyzed into the active antibiotic
  penetration of waxy cuticle layer and epidermis to access the phloem: affectively penetrate through the waxy cuticle layer and through the epidermis to access the phloem
  penicillin G/V or metabolite peaks detected in reservoir water: base peaks in the mass spectrum corresponded to the active antibiotics

## CCCCCCCCCC(=O)OCOC(=O)[C@@H]1N2C(=O)[C@@H](NC(=O)COc3ccccc3)[C@H]2SC1(C)C [product compound 6, (Decanoyloxy)methyl(2S,5R,6R)-3,3-dimethyl-7-oxo-6-(2-phenoxyacetamido)-4-thia-1-azabicyclo[3.2.0]heptane-2-carboxylate]
[3]
  hydrolysis of the ester into the active antibiotic by citrus tissue: hydrolyzed into the active antibiotic
  penetration of waxy cuticle layer and epidermis to access the phloem: affectively penetrate through the waxy cuticle layer and through the epidermis to access the phloem
  penicillin G/V or metabolite peaks detected in reservoir water: base peaks in the mass spectrum corresponded to the active antibiotics

## CC(C)(C)C(=O)OCOC(=O)[C@@H]1N2C(=O)[C@@H](NC(=O)Cc3ccccc3)[C@H]2SC1(C)C [product compound 7, (Pivaloyloxy)methyl (2S,5R,6R)-3,3-dimethyl-7-oxo-6-(2-phenylacetamido)-4-thia-1-azabicyclo[3.2.0]heptane-2-carboxylate]
[3]
  hydrolysis of the ester into the active antibiotic by citrus tissue: hydrolyzed into the active antibiotic
  penetration of waxy cuticle layer and epidermis to access the phloem: affectively penetrate through the waxy cuticle layer and through the epidermis to access the phloem
  penicillin G/V or metabolite peaks detected in reservoir water: base peaks in the mass spectrum corresponded to the active antibiotics

## CC(C)(C)C(=O)OCOC(=O)[C@@H]1N2C(=O)[C@@H](NC(=O)COc3ccccc3)[C@H]2SC1(C)C [product compound 8, (Pivaloyloxy)methyl (2S,5R,6R)-3,3-dimethyl-7-oxo-6-(2-phenoxyacetamido)-4-thia-1-azabicyclo[3.2.0]heptane-2-carboxylate]
[3]
  hydrolysis of the ester into the active antibiotic by citrus tissue: hydrolyzed into the active antibiotic
  penetration of waxy cuticle layer and epidermis to access the phloem: affectively penetrate through the waxy cuticle layer and through the epidermis to access the phloem
  penicillin G/V or metabolite peaks detected in reservoir water: base peaks in the mass spectrum corresponded to the active antibiotics

## [H]/N=C(/N)N[C@H]1[C@H](O)[C@@H](O)[C@H](O[C@@H]2O[C@@H](C)[C@](O)(C=O)[C@H]2O[C@@H]2O[C@@H](CO)[C@H](O)[C@@H](O)[C@@H]2NC)[C@@H](N/C(N)=N\[H])[C@@H]1O [streptomycin sulfate]
[1]
  effect on HLB infected trees: only marginally improved the health of trees
[4]
  bactericidal or bacteriostatic action: bactericidal

## benzylpenicillin (penicillin G)
[1]; direct injected into infected citrus trees, alone or in combinations with other antibiotics
  effect on tree health: marked improvement
[5]
  phytotoxicity: very little phytotoxicity
  effectiveness against the pathogenic bacteria: extremely effective
[2]
  penetration of citrus leaves or stems: do not easily penetrate the waxy cuticle covering

## phenoxymethylpenicillin (penicillin V)
[5]
  phytotoxicity: very little phytotoxicity
  effectiveness against the pathogenic bacteria: extremely effective
[2]
  penetration of citrus leaves or stems: do not easily penetrate the waxy cuticle covering
